The values below come from patent US10188634B2, “3-(3H-imidazo[4,5-C]pyridin-2-yl)-1 H-pyrazolo[4,3-B]pyridines and therapeutic uses thereof” (Samumed, LLC, priority 2015, dated 2019).

Where only a bound is given, the exact number is not on record here.

Common to all, as to type: cell-based
One test has as its system SW480 colon cancer cells. The experiment in a line: Cell viability assay (CellTiter-Blue) in SW480 colon cancer cells. The settings on record: Homo sapiens, 96 h; for inhibition at 10 µM: four days, CellTiter-Blue, read-out: percent inhibition at 10 μM (given for EC50 of >10 μM); for EC50: four days incubation, CellTiter-Blue cell viability. A digest of the protocol: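 About 2×10^3 SW480 colon cancer cells per well were exposed to compound (8-point 1:3 dilutions, 10 μM to 0.004 μM) for four days at 37 °C. Viability was read by CellTiter-Blue resazurin reduction (~3 h, Ex 560/Em 590). EC50 from nonlinear regression; above 10 μM, % inhibition at 10 μM is reported.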
(In general: Resazurin is reduced to fluorescent resorufin, in cell work by metabolically active cells.)

Test [1] concerns LL29 cells (primary human fibroblasts derived from IPF patients) treated with TGF-β1, α-smooth muscle actin. The experiment in a line: Inhibition of the fibrotic process: αSMA staining in TGF-β1 treated primary human fibroblasts from IPF patients (LL29 cells). The settings on record: Fibroblast, 96 h; for EC50: LL29 cells treated with TGF-β1 (20 ng/mL), 4 days; for inhibition at 10 µM: LL29 cells treated with TGF-β1, 4 days, read-out: percent inhibition in brackets (given for EC50 >10 μM).

Another test deals with IL-6 in THP-1 cells. The experiment in a line: Inhibition of IL-6 in LPS-stimulated THP-1 human monocyte cells (HTRF). The settings on record: IL-6 HTRF; for EC50: 500 ng/mL LPS, 22 hours; for inhibition at 10 µM: LPS, read-out: percent inhibition in brackets (given for EC50 >10 μM). A digest of the protocol:
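THP-1 cells, serum-reduced (1% FBS) for 24 h, were exposed to compound (1:3, 10-point series from 10 μM; 0.1% DMSO) for 2 h, then 500 ng/mL LPS for 22 h at 37° C. Secreted IL-6 measured by HTRF (665/620 ratio), normalised to DMSO; EC50 by four-parameter fit, else % inhibition at 10 μM.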
(Time-resolved FRET reads energy transfer from a long-lived donor to a nearby acceptor.)

What is called inhibition is the relative decrease from the control value, in per cent. One may read the EC50 as the concentration giving half of the maximal effect. As to `c1csc(-c2cncc3[nH]c(-c4n[nH]c5ccc(-c6ccncc6)nc45)nc23)c1` [Compound 326, 5-(Pyridin-4-yl)-3-(7-(thiophen-2-yl)-3H-imidazo[4,5-c]pyridin-2-yl)-1H-pyrazolo[4,3-b]pyridine], the inhibition at 10 µM in the test with SW480 colon cancer cells came to 0%; in test [1], 26.6%; in the test with IL-6 in THP-1 cells, 22.3%. Besides, the EC50 (with SW480 colon cancer cells; in test [1]; in the test with IL-6 in THP-1 cells) was greater than 10 µM each time.
As for `CS(=O)(=O)NCc1cc(F)cc(-c2cncc3[nH]c(-c4n[nH]c5ccc(-c6cncc(NC(=O)CC7CCNCC7)c6)nc45)nc23)c1` [Compound 725, N-(5-(3-(7-(3-Fluoro-5-(methylsulfonamidomethyl)phenyl)-3H-imidazo[4,5-c]pyridin-2-yl)-1H-pyrazolo[4,3-b]pyridin-5-yl)pyridin-3-yl)-2-(piperidin-4-yl)acetamide], the figures for the inhibition at 10 µM (in the test on SW480 colon cancer cells; in test [1]; in the test with IL-6 in THP-1 cells) were 14.6%, 40.9% and 27.1%, respectively. For the same molecule, the EC50 (in the test with SW480 colon cancer cells; in test [1]; with IL-6 in THP-1 cells) was greater than 10 µM in each case.
Turning to `Cn1cc(-c2ccc3[nH]nc(-c4nc5c(-c6cccs6)cncc5[nH]4)c3n2)cn1` [Compound 656, 5-(1-Methyl-1H-pyrazol-4-yl)-3-(7-(thiophen-2-yl)-3H-imidazo[4,5-c]pyridin-2-yl)-1H-pyrazolo[4,3-b]pyridine], the inhibition at 10 µM in the test on SW480 colon cancer cells is 1.3%; in test [1] it was 46.4%; in the test on IL-6 in THP-1 cells, 14.8%. Besides, the EC50 (with SW480 colon cancer cells; in test [1]; in the test on IL-6 in THP-1 cells) was greater than 10 µM each time.
Take `CCNCc1cncc(-c2ccc3[nH]nc(-c4nc5c(-c6cc(F)cc(NCCN(C)C)c6)cncc5[nH]4)c3n2)c1` [Compound 426, N^1-(3-(2-(5-(5-((Ethylamino)methyl)pyridin-3-yl)-1H-pyrazolo[4,3-b]pyridin-3-yl)-3H-imidazo[4,5-c]pyridin-7-yl)-5-fluorophenyl)-N^2,N^2-dimethylethane-1,2-diamine]: the inhibition at 10 µM in the test on SW480 colon cancer cells was 4.4%. In addition, the results for the EC50 (with SW480 colon cancer cells; in test [1]; with IL-6 in THP-1 cells) were greater than 10 µM, 5.09 µM and 8.05 µM, respectively.
Take `c1ccc(CNCc2cncc(-c3ccc4[nH]nc(-c5nc6c(-c7cccnc7)cncc6[nH]5)c4n3)c2)cc1` [Compound 108, N-Benzyl-1-(5-(3-(7-(pyridin-3-yl)-3H-imidazo[4,5-c]pyridin-2-yl)-1H-pyrazolo[4,3-b]pyridin-5-yl)pyridin-3-yl)methanamine]: the inhibition at 10 µM (with SW480 colon cancer cells; in test [1]) was 0% throughout. The EC50 was greater than 10 µM in the test on SW480 colon cancer cells, greater than 10 µM in test [1] and 0.03 µM in the test with IL-6 in THP-1 cells.
As for `COc1cccc(-c2cncc3[nH]c(-c4n[nH]c5ccc(-c6cncc(NC(=O)CC(C)(C)C)c6)nc45)nc23)c1` [Compound 961, N-(5-(3-(7-(3-methoxylphenyl)-3H-imidazo[4,5-c]pyridin-2-yl)-1H-pyrazolo[4,3-b]pyridin-5-yl)pyridin-3-yl)-3,3-dimethylbutanamide], the inhibition at 10 µM came to 0.4% in the test on SW480 colon cancer cells, 0% in test [1] and 22.5% with IL-6 in THP-1 cells. Also, the EC50 (in the test on SW480 colon cancer cells; in test [1]; with IL-6 in THP-1 cells) was greater than 10 µM each time.
Consider `Cc1cn(-c2cncc3[nH]c(-c4n[nH]c5ccc(-c6cncc(NC(=O)C(C)(C)C)c6)nc45)nc23)cn1` [Compound 204, N-(5-(3-(7-(4-methyl-1H-imidazol-1-yl)-3H-imidazo[4,5-c]pyridin-2-yl)-1H-pyrazolo[4,3-b]pyridin-5-yl)pyridin-3-yl)pivalamide], for which the values for the inhibition at 10 µM (in the test on SW480 colon cancer cells; in test [1]; with IL-6 in THP-1 cells) were 4.7%, 0% and 24.5%, respectively. Further, the EC50 (in the test with SW480 colon cancer cells; in test [1]; with IL-6 in THP-1 cells) was greater than 10 µM in each case.
In the case of `CCC(=O)Nc1cncc(-c2ccc3[nH]nc(-c4nc5c(-c6cccs6)cncc5[nH]4)c3n2)c1` [Compound 309, N-(5-(3-(7-(Thiophen-2-yl)-3H-imidazo[4,5-c]pyridin-2-yl)-1H-pyrazolo[4,3-b]pyridin-5-yl)pyridin-3-yl)propionamide], the inhibition at 10 µM in the test on SW480 colon cancer cells was found to be 0%; in test [1], 0%; with IL-6 in THP-1 cells, 31.2%. Also, the EC50 (in the test on SW480 colon cancer cells; in test [1]; in the test on IL-6 in THP-1 cells) was greater than 10 µM in each case.
Take `O=C(Nc1cncc(-c2ccc3[nH]nc(-c4nc5c(-c6ccsc6)cncc5[nH]4)c3n2)c1)c1ccccc1` [Compound 263, N-(5-(3-(7-(Thiophen-3-yl)-3H-imidazo[4,5-c]pyridin-2-yl)-1H-pyrazolo[4,3-b]pyridin-5-yl)pyridin-3-yl)benzamide]: the values for the inhibition at 10 µM (in the test on SW480 colon cancer cells; in test [1]; in the test with IL-6 in THP-1 cells) were 0.3%, 0% and 36.3%, respectively. In addition, the EC50 (with SW480 colon cancer cells; in test [1]; in the test on IL-6 in THP-1 cells) was greater than 10 µM each time.
As for `CN1CCN(c2cncc3[nH]c(-c4n[nH]c5ccc(-c6cncc(N)c6)nc45)nc23)CC1` [Compound 227, 5-(3-(7-(4-Methylpiperazin-1-yl)-3H-imidazo[4,5-c]pyridin-2-yl)-1H-pyrazolo[4,3-b]pyridin-5-yl)pyridin-3-amine], the inhibition at 10 µM in the test with SW480 colon cancer cells amounted to 0%; in the test with IL-6 in THP-1 cells, 38%. Moreover, the concentration giving a half-maximal response (EC50) in the test on SW480 colon cancer cells is greater than 10 µM; in test [1] it was 4.83 µM; in the test with IL-6 in THP-1 cells it was greater than 10 µM.
Turning to `CN(C)CCOc1cncc(-c2ccc3[nH]nc(-c4nc5c(-c6cccs6)cncc5[nH]4)c3n2)c1` [Compound 663, N,N-Dimethyl-2-((5-(3-(7-(thiophen-2-yl)-3H-imidazo[4,5-c]pyridin-2-yl)-1H-pyrazolo[4,3-b]pyridin-5-yl)pyridin-3-yl)oxy)ethan-1-amine], the results for the inhibition at 10 µM in the test with SW480 colon cancer cells and with IL-6 in THP-1 cells were 15.5% and 43.8%, respectively. The EC50 in the test with SW480 colon cancer cells was greater than 10 µM; in test [1], 1.22 µM; in the test with IL-6 in THP-1 cells, greater than 10 µM.
With `CC(C)(C)CC(=O)Nc1cncc(-c2ccc3[nH]nc(-c4nc5c(-c6ccccc6F)cncc5[nH]4)c3n2)c1` [Compound 72, N-(5-(3-(7-(2-fluorophenyl)-3H-imidazo[4,5-c]pyridin-2-yl)-1H-pyrazolo[4,3-b]pyridin-5-yl)pyridin-3-yl)-3,3-dimethylbutanamide], the inhibition at 10 µM was determined as 9.8% in the test with SW480 colon cancer cells, 0% in test [1] and 29.8% in the test with IL-6 in THP-1 cells. The EC50 (in the test with SW480 colon cancer cells; in test [1]; in the test on IL-6 in THP-1 cells) was greater than 10 µM in each case.
On to `NC1CN(c2cncc(-c3ccc4[nH]nc(-c5nc6c(-c7ccc(Cl)s7)cncc6[nH]5)c4n3)n2)C1` [Compound 1023, 1-(6-(3-(7-(5-Chlorothiophen-2-yl)-3H-imidazo[4,5-c]pyridin-2-yl)-1H-pyrazolo[4,3-b]pyridin-5-yl)pyrazin-2-yl)azetidin-3-amine], for which the inhibition at 10 µM in the test on SW480 colon cancer cells is 7.4%. For the same molecule, the results for the EC50 (with SW480 colon cancer cells; in test [1]; in the test with IL-6 in THP-1 cells) were greater than 10 µM, 6.19 µM and 0.098 µM, respectively.
On to `Cc1ncc(-c2ccc3[nH]nc(-c4nc5c(-c6cccc(F)c6)cncc5[nH]4)c3n2)n1C` [Compound 481, 5-(1,2-Dimethyl-1H-imidazol-5-yl)-3-(7-(3-fluorophenyl)-3H-imidazo[4,5-c]pyridin-2-yl)-1H-pyrazolo[4,3-b]pyridine], for which the figures for the half-maximal effective concentration (EC50) (with SW480 colon cancer cells; in test [1]; in the test with IL-6 in THP-1 cells) were 2.3 µM, greater than 10 µM and greater than 10 µM, respectively. Besides, the inhibition at 10 µM worked out at 4.5% in test [1] and 48.3% with IL-6 in THP-1 cells.
Consider `c1cc2c(cc1-c1cncc3[nH]c(-c4n[nH]c5ccc(C6CCNCC6)nc45)nc13)OCO2` [Compound 1063, 3-(7-(Benzo[d][1,3]dioxol-5-yl)-3H-imidazo[4,5-c]pyridin-2-yl)-5-(piperidin-4-yl)-1H-pyrazolo[4,3-b]pyridine], for which the inhibition at 10 µM in the test with SW480 colon cancer cells was determined as 4.8%; in test [1], 31.3%; with IL-6 in THP-1 cells, 32.7%. Besides, the concentration for a half-maximal effect (EC50) (in the test with SW480 colon cancer cells; in test [1]; with IL-6 in THP-1 cells) was greater than 10 µM in each case.
On to `c1cc(-c2cncc3[nH]c(-c4n[nH]c5ccc(-c6cnccn6)nc45)nc23)ccn1` [Compound 556, 5-(Pyrazin-2-yl)-3-(7-(pyridin-4-yl)-3H-imidazo[4,5-c]pyridin-2-yl)-1H-pyrazolo[4,3-b]pyridine], for which the inhibition at 10 µM in the test with SW480 colon cancer cells worked out at 13.7%; with IL-6 in THP-1 cells, 0%. The values for the concentration for a half-maximal effect (EC50) (in the test on SW480 colon cancer cells; in test [1]; with IL-6 in THP-1 cells) were greater than 10 µM, 0.014 µM and greater than 10 µM, respectively.
For the molecule `COc1cccc(-c2cncc3[nH]c(-c4n[nH]c5ccc(-c6cn[nH]c6)nc45)nc23)c1` [Compound 975, 3-(7-(3-Methoxylphenyl)-3H-imidazo[4,5-c]pyridin-2-yl)-5-(1H-pyrazol-4-yl)-1H-pyrazolo[4,3-b]pyridine], the inhibition at 10 µM turned out to be 4.1% in the test with SW480 colon cancer cells, 43.2% in test [1] and 0% in the test on IL-6 in THP-1 cells. Also, the EC50 (with SW480 colon cancer cells; in test [1]; in the test with IL-6 in THP-1 cells) was greater than 10 µM each time.
